Experimental data published in ChEMBL document CHEMBL1141582, “Multi-target-directed coumarin derivatives: hAChE and BACE1 inhibitors as potential anti-Alzheimer compounds” (Bioorg Med Chem Lett, 2008).

Columns and labels:
Acetylcholinesterase = Acetylcholinesterase (Homo sapiens, UniProt P22303); experiment: Inhibition of human recombinant AChE by Ellman method
Beta-secretase 1 = Beta-secretase 1 (Homo sapiens, UniProt P56817); experiment: Inhibition of human recombinant BACE1 by spectrofluorimetric method
Chain of Beta-secretase 1 (P56817 whole entry): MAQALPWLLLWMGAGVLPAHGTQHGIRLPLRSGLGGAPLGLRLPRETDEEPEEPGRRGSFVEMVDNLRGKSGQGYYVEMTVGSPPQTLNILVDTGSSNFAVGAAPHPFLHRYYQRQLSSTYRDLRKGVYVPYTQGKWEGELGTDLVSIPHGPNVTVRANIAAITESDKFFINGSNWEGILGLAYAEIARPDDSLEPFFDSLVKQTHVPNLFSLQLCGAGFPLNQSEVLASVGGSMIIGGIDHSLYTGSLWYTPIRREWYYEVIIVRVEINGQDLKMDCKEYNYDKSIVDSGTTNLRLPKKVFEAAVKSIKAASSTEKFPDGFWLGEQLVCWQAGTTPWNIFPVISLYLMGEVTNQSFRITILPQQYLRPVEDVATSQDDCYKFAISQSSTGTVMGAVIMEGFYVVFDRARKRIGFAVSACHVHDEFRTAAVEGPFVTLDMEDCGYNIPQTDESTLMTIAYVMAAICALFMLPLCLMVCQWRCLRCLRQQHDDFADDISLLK

Chain of Acetylcholinesterase (P22303 whole entry): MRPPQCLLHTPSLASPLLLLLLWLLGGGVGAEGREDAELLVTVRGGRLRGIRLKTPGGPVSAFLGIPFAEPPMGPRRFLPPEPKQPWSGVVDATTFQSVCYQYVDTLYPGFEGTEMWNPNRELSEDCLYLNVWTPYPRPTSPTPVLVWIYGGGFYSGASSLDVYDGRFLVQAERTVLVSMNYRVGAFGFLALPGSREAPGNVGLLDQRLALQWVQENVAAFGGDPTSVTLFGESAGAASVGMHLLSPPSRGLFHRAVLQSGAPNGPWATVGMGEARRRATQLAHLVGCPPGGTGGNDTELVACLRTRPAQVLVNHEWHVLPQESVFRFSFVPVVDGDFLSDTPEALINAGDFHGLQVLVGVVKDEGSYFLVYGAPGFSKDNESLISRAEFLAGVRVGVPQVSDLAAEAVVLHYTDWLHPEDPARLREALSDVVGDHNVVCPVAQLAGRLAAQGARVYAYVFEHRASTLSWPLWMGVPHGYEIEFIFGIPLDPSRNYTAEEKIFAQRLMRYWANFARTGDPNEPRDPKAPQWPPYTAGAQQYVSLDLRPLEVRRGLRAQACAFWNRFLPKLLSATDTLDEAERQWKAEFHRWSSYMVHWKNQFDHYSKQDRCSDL

SMILES | IC50 (Acetylcholinesterase) [nM] | IC50 (Beta-secretase 1) [nM]
CCN(Cc1ccccc1)Cc1ccc(-c2cc3cc(OCCNC(=O)/C=C/c4cc(F)cc(F)c4)ccc3oc2=O)cc1 | 7160 | 99
CCN(Cc1ccccc1)Cc1ccc(-c2cc3cc(OCCNC(=O)CCc4ccc(F)c(F)c4)ccc3oc2=O)cc1 | 2770 | 116
CCN(Cc1ccccc1)Cc1ccc(-c2cc3ccc(OCCNC(=O)Cc4cc(F)cc(F)c4)cc3oc2=O)cc1 | 181 | 150
CCN(Cc1ccccc1)Cc1ccc(-c2cc3ccc(OCCNC(=O)/C=C/c4ccc(Cl)c(Cl)c4)cc3oc2=O)cc1 | 4230 | 151
CCN(Cc1ccccc1)Cc1ccc(-c2cc3ccc(OCCNC(=O)/C=C/c4cc(F)cc(F)c4)cc3oc2=O)cc1 | 4570 | 121
CCN(Cc1ccccc1)Cc1ccc(-c2cc3ccc(OCCNC(=O)CCc4ccc(F)c(F)c4)cc3oc2=O)cc1 | 327 | 114
CCN(Cc1ccccc1)Cc1ccc(-c2cc3cc(OCCNC(=O)Cc4cc(F)cc(F)c4)ccc3oc2=O)cc1 | 551 | 149
CCN(Cc1ccccc1)Cc1ccc(-c2cc3cc(OCCNC(=O)/C=C/c4ccc(Cl)c(Cl)c4)ccc3oc2=O)cc1 | 267000 | 133
